Assays:
[1] = test system: peripheral vascular α2 receptors; test: inhibition of the pressor effect of BHT 920 in pithed rats; type: in vivo, rat; conditions: 1 mg/kg i.v., BHT 920 30 μg/kg i.v.
Description: The α2 antagonist activity of the compounds is evaluated by the inhibition of the pressor effect (blood pressure elevation), of a specific α2 agonist agent, 4H-Thiazolo[4,5-b]azetin-2-amine, 5,6,7,8-tetrahydro-6-(2-propenyl)-, dihydrochloride, designated as BHT 920 at a concentration of 30 μg/kg i.v.) according to a method described by J. C. Van Meel et al., J. Pharmacol. Exp. Ther., 219, 760-767 (1981).
The compound to be tested is administered at 1 mg/kg i.v. The ability of the compounds tested to antagonize the pressor effects of BHT 920 is determined and expressed as percentage of inhibition. Any direct hypertensive (=α2 agonist) activity of the compounds under test can likewise be detected.

[2] = test system: 5-methoxy-N,N-dimethyltryptamine-induced head twitching (serotoninergic syndrome); test: head twitches induced by 5-methoxy-N,N-dimethyltryptamine in mice; type: in vivo
Text: The fourth in vivo study evaluated activity of the compounds of the invention on serotonin agonist-induced head twitching (serotoninergic syndrome). The compound 5-methoxy-N,N-dimethyl tryptamine is a serotonin agonist which induces head twitching in mice. The activity of this tryptamine compound is increased by antidepressant drugs. This study evaluated the ability of the compounds of the present invention to influence the effect of the tryptamine-induced head twitching (E. Friedman, et al., Eur. J. Pharmacol., 89, 69-76, 1983).
The compounds to be tested were administered to mice at the dose of 3 mg/kg p.o. either acutely or chronically twice a day continually for 2 weeks. The increased head twitching caused by the tryptamine compound (2 mg/kg i.p.) was observed 1, 24 and 72 hours after the last administration of the test compound.

[3] = test system: 3-mercaptopropionic acid (3-MPA)-induced tonic extension in mice; test: protection against 3-mercaptopropionic acid (3-MPA)-induced tonic extension in mice; type: in vivo; conditions: 100 mg/kg orally, 30 minutes prior to 3-MPA (120 mg/kg s.c.)
Description: In the second study the anti-convulsant effect of the compounds of the present invention was examined in two seizure models; bicuculline-induced tonic extension in mice and 3-mercaptopropionic acid (3-MPA)-induced tonic extension in mice.
In the bicuculline study, the ability of the compounds of the present invention to protect against tonic extension (involving rigidity) was evaluated as follows. Each test compound was administered to a group of ten mice at a dose of 10 mg/kg, 3 hours prior to the i.v. administration of bicuculline (0.7 mg/kg). Anticonvulsant activity in this test is expressed as percentage of animals tested. The results are given in Table II, column 6, and indicate that several compounds display significant anticonvulsive activity in this test. The anticonvulsant effect of the compounds has also been tested with respect to the tonic extension induced by 3-mercaptopropionic acid (120 mg/kg subcutaneously) in mice.
In the 3-MPA assay, the compounds of the present invention are administered orally at a dose of 100 mg/kg 30 minutes prior to administration of 3-MPA. Each compound was tested on a group of 5 mice; if more than 1 mouse was protected, a second group of 5 mice was tested.

[4] = target: T1, α2 -adrenergic receptors (Rattus norvegicus, UniProt P22909); test: binding to α2-adrenergic receptors on rat brain homogenates (3H-p. aminoclonidine); conditions: 10^-7 M; for inhibition at 0.1 µM: rat brain homogenates, 0.7 nM 3H-p. aminoclonidine, read-out: % Inhibition of the Specific Binding at 10^-7 M for α2 Recep.; for affinity for α2 receptors (in words): in vitro binding assay
T1 construct: from tissue; host or cells: rat brain homogenates
T1 sequence (P22909 1-465): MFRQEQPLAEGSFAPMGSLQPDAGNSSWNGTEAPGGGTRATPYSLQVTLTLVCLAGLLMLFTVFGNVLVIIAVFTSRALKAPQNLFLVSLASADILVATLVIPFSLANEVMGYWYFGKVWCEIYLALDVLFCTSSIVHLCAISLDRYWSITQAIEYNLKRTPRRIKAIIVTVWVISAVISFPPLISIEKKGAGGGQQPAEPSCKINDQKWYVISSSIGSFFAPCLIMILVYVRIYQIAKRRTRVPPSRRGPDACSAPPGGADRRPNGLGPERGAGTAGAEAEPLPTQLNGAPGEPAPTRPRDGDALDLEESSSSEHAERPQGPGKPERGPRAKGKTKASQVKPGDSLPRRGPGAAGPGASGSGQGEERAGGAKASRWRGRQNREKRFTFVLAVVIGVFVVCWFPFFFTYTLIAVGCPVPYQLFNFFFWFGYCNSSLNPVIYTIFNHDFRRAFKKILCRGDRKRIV
Description: The activity of the compounds according to the invention with respect to binding of the α-adrenergic receptors was determined in vitro according to a method deriving from the works of B. R. Rouot et al., Life Sci., 25, 769 (1979) and of D. U'Prichard et al., Mol. Pharmacol., 13, 454 (1977). This method consists in measuring the binding to the receptor on rat brain homogenates, by marking by means of a specific tritriated ligand placed in competition with the product to be tested.
In the presenct case the binding to the α1 -adrenergic receptors was measured by means of 1.6 nM of ^3 H-WB 4101 and the binding to the α2 -adrenergic receptors by means of 0.7 nM of ^3 H-p. aminoclonidine, the non-specific binding being determined by 1,000 nM of phentolamine. The results are given in Table II, column 3, and are expressed in terms of percentage of inhibition of the specific binding of 10^-7 molar compound concentration.
(2) The specific binding is the total binding less the nonspecific
binding. The total binding is the binding in the absence of nonradioactiv
drug. The nonspecific binding is the binding in the presence of 1,000 nM
of phentolamine. The products of the invention are tested at a
concentration of 10^-7 molar.

[5] = acute toxicity after oral administration to mice (LD50); conditions: mouse, in vivo, 15 days mortality
Description: The acute toxicity of the compounds of the present invention was studied after oral administration to mice. The products to be tested, suspended in a 1% tragacanth gum mucilage, were administered by means of an intragastric probe to groups of three male mice which had fasted since the preceding day. The doses tested are a function of the effect observed and can vary from 3,000 to 3 mg/kg or less. The mortality was recorded for 15 days. The lethal dose for 50% of the animals (LD50) was calculated according to the method of J. Litchfield and F. Wilcoxon, J. Pharmacol. Exp. Ther., 96, 99 (1949) and expressed in mg/kg. The effect of the products on the behaviour of the animals is observed until 5 to 6 hours after the treatment indicated above and after 24 hours, using a method derived from that of S. Irwin, described by R. A. Turner, Screening Methods in Pharmacology, Chapter 3, pages 22-34, Academic Press, 1965. If anomalies are noted, the observation is prolonged and smaller doses are tested.

With `c1ccc(C(Cc2c[nH]cn2)c2ccccc2)cc1` [Compound 1, 4(5)-(2,2-diphenylethyl)-imidazole] the “α2 antagonist activity, inhibition of pressor effect of BHT 920 (in words)” value (shortened to “α2 antagonist activity, inhibition”) [1] was “very active as α2 antagonist agents”, the “Head Twitches/5 Minutes, percent compared to the vehicle treated group” value (from here on “Head Twitches/5 Minutes, percent”) ([2]; acute, 3 mg/kg p.o., 1 h after last treatment, tryptamine compound 2 mg/kg i.p.) was 171% and the “Head Twitches/5 Minutes, percent” value ([2]; chronic, 3 mg/kg p.o. twice a day 2 weeks, 1 h after last treatment) was 278%. The “Head Twitches/5 Minutes, percent” value ([2]; chronic, 3 mg/kg p.o. twice a day 2 weeks, 24 h after last treatment) was 210%, the “Head Twitches/5 Minutes, percent” value ([2]; chronic, 3 mg/kg p.o. twice a day 2 weeks, 72 h after last treatment) was 211% and the “anticonvulsant effect versus 3-MPA (in words)” value [3] was “potent anticonvulsant effect”. The inhibition at 0.1 µM [4] was 89%, the “affinity for α2 receptors (in words)” value [4] was “high affinity” and the LD50 at 360 h [5] was 155 mg/kg.
For `COc1ccc(C(Cc2c[nH]cn2)c2ccccc2)cc1` (stereo not drawn) [Compound 17, 4(5)-{[2-(4-methoxyphenyl)-2-phenyl]ethyl}imidazole], the “α2 antagonist activity, inhibition” value [1] was “very active as α2 antagonist agents”, the inhibition at 0.1 µM [4] was 78% and the LD50 at 360 h [5] was 350 mg/kg.
For `Cc1ccc(C(Cc2c[nH]cn2)c2ccccc2)cc1` (stereo not drawn) [Compound 21], the “α2 antagonist activity, inhibition” value [1] was “very active as α2 antagonist agents”, the inhibition at 0.1 µM [4] was 74% and the LD50 at 360 h [5] was 350 mg/kg.
For `Fc1ccc(C(Cc2c[nH]cn2)c2ccccc2)cc1` (stereo not drawn) [Compound 14, 4(5)-{[2-(4-fluorophenyl)-2-phenyl]ethyl}imidazole], the “α2 antagonist activity, inhibition” value [1] was “very active as α2 antagonist agents”, the inhibition at 0.1 µM [4] was 69% and the LD50 at 360 h [5] was 155 mg/kg.
With `Cc1cccc(C(Cc2c[nH]cn2)c2ccccc2)c1` (stereo not drawn) [Compound 9, 4(5)-{[2-(3-methylphenyl)-2-phenyl]ethyl}imidazole] the “α2 antagonist activity, inhibition” value [1] was “very active as α2 antagonist agents”, the inhibition at 0.1 µM [4] was 85% and the “affinity for α2 receptors (in words)” value [4] was “high affinity”. It also gave an LD50 at 360 h [5] of 155 mg/kg.
For `Fc1ccc(C(Cc2c[nH]cn2)c2ccccc2F)cc1` (stereo not drawn) [Compound 15, 4(5)-{[2-(2-fluorophenyl)-2-(4'-fluorophenyl)]ethyl}imidazole], the “α2 antagonist activity, inhibition” value [1] was “very active as α2 antagonist agents”, the inhibition at 0.1 µM [4] was 77% and the LD50 at 360 h [5] was 155 mg/kg.
For `Cc1ccccc1C(Cc1c[nH]cn1)c1ccccc1` (stereo not drawn) [Compound 12], the “α2 antagonist activity, inhibition” value [1] was “very active as α2 antagonist agents”, the inhibition at 0.1 µM [4] was 71% and the LD50 at 360 h [5] was 155 mg/kg.
In the case of `Cc1ccc(C)c(C(Cc2c[nH]cn2)c2ccccc2)c1` (stereo not drawn) [Compound 16], the “anticonvulsant effect versus 3-MPA (in words)” value [3] is reported as “potent anticonvulsant effect”, the inhibition at 0.1 µM [4] is reported as 31% and the LD50 at 360 h [5] is reported as greater than 300 mg/kg.
In the case of `CC(c1c[nH]cn1)C(c1ccccc1)c1ccccc1` (stereo not drawn) [Compound 4], the “α2 antagonist activity, inhibition” value [1] is reported as “very active as α2 antagonist agents”, the inhibition at 0.1 µM [4] is reported as 5% and the LD50 at 360 h [5] is reported as greater than 300 mg/kg.
For `Clc1ccccc1C(Cc1c[nH]cn1)c1ccccc1` (stereo not drawn) [Compound 13, 4(5)-{[2-(2-chlorophenyl)-2-phenyl]ethyl}imidazole], the “α2 antagonist activity, inhibition” value [1] was “very active as α2 antagonist agents”, the “anticonvulsant effect versus 3-MPA (in words)” value [3] was “potent anticonvulsant effect” and the inhibition at 0.1 µM [4] was 81%. For the same molecule, the “affinity for α2 receptors (in words)” value [4] was “high affinity” and the LD50 at 360 h [5] was 172 mg/kg.

Source: patent publication US4738979A, “α2 -blocking derivatives of imidazole” (G. D. Searle & Co., priority 1985, dated 1988)
